Read-outs that look alike come from different tables or passages of the source.
Tests used:
[1] = Peroxide radicals capturing capacity; assay type: biochemical; settings: pure polyphenols isolated from wood material
Source text: Tables 4C and 4D further represent the free radicals capturing capacity of certain pure polyphenols and unrefined polyphenol extracts with respect to peroxide radicals. Tables 4A and 4B represent the antioxidative effect of a few pure polyphenols and of unrefined polyphenolic compounds containing raw extracts, obtained from wood bark and knotty stemwood. Tables 4C and 4D in turn illustrate the peroxide radicals capturing capacity of a few pure polyphenols and of unrefined, polyphenolic compounds containing raw extracts, obtained from wood bark and knotty stemwood. In Tables 4A-4D, it can be observed that the antioxidative and free radical capturing properties of solutions containing pure polyphenol compounds, obtained from wood material in hydrophilic extraction, are often remarkably different from the corresponding properties of compound mixtures containing unrefined raw extract solutions and obtained from wood material in hydrophilic extraction, owing to the synergetic effects of the compounds contained in the compound mixtures in unrefined extracts. The compound mixtures according to the invention are obtained from these unrefined raw extract solutions.

[2] = Antioxidative capacity: inhibition of the peroxidation of lipids; assay type: biochemical; settings: pure polyphenols isolated from wood material
Source text: In Tables 4A, 4B, 4C and 4D, there are represented antioxidative and free radical capturing effects of pure polyphenolic compounds and of unrefined polyphenolic compounds containing raw extracts obtained from wood bark and knotty stemwood. Tables 4A and 4B represent the antioxidative effect of a few pure polyphenols and of unrefined polyphenolic compounds containing raw extracts, obtained from wood bark and knotty stemwood. Tables 4C and 4D in turn illustrate the peroxide radicals capturing capacity of a few pure polyphenols and of unrefined, polyphenolic compounds containing raw extracts, obtained from wood bark and knotty stemwood. In Tables 4A-4D, it can be observed that the antioxidative and free radical capturing properties of solutions containing pure polyphenol compounds, obtained from wood material in hydrophilic extraction, are often remarkably different from the corresponding properties of compound mixtures containing unrefined raw extract solutions and obtained from wood material in hydrophilic extraction, owing to the synergetic effects of the compounds contained in the compound mixtures in unrefined extracts. The compound mixtures according to the invention are obtained from these unrefined raw extract solutions.

[3] = pure polyphenols; values marked 1: Willför et al., J. Agric. Food Chem. 51, 7600-7606 (2003); cited from earlier work
[4] = pure polyphenols; values marked 1: Willför et al., J. Agric. Food Chem. 51 (2003); cited from earlier work
[5] = system: human keratinocyte cells; assay type: cell-based

Compound | Peroxide radicals capturing capacity [1] | EC50 which inhibits 50% of the peroxidation of the lipids [2] | Peroxide radicals capturing capacity [3] | EC50 which inhibits 50% of the peroxidation of the lipids [4] | also measured
Oc1ccc([C@H]2Oc3c(ccc(O)c3O)[C@@H](O)[C@H]2O)cc1O [Melacasidine] | 20 mmol/g | 0.036 µg/mL | – | – | –
O=C1C[C@@H](c2ccccc2)Oc2cc(O)cc(O)c21 [Pinosembrin] | 0.49 mmol/g | 1.135 µg/mL | – | – | –
COc1cc(C[C@H]2COC(=O)[C@@H]2Cc2ccc(O)c(OC)c2)ccc1O [Matairesinol] | – | – | 2.9 mmol/g | 0.099 µg/mL | –
O=C1c2c(O)cc(O)cc2O[C@H](c2ccc(O)c(O)c2)[C@H]1O [Taxifolin] | – | – | 16 mmol/g | 0.046 µg/mL | –
COc1cc(C[C@H]2CO[C@H](c3ccc(O)c(OC)c3)[C@H]2CO)ccc1O [Lariciresinol] | – | – | 2.7 mmol/g | 0.126 µg/mL | –
Pinoresinol | 7.8 mmol/g | 0.02 µg/mL | – | – | –
Cc1cc(C(C)(C)C)c(O)c(C(C)(C)C)c1 [BTH, butylated hydroxytoluene] | – | – | – | – | EC20 (limit value by which 20% of the cultivated cells died) ([5]; human, 24 h): 5.50 ppm; times more cytotoxic than HMR powder ([5]; ratio to HMR powder): 10-20 times
COc1cc(C[C@@H](CO)[C@H](CO)Cc2ccc(O)c(OC)c2)ccc1O [Secoisolariciresinol] | – | – | 8.5 mmol/g | 0.037 µg/mL | –
O=C1c2c(O)cc(O)cc2O[C@H](c2ccc(O)cc2)[C@H]1O [Dihydrokaempferol] | 0.78 mmol/g | 0.488 µg/mL | – | – | –
COc1cc(C[C@H]2C(=O)OC[C@@H]2[C@H](O)c2ccc(O)c(OC)c2)ccc1O [Hydroxymatairesinol] | – | – | 5.6 mmol/g | 0.058 µg/mL | –
COc1cc(C[C@H]2COC(=O)[C@]2(O)Cc2ccc(O)c(OC)c2)ccc1O [Nortrachelogenin] | – | – | 5.9 mmol/g | 0.053 µg/mL | –
Oc1cc(O)cc(/C=C/c2ccccc2)c1 [Pinosylvin] | 0.78 mmol/g | 0.05 µg/mL | – | – | –
Oc1ccc([C@H]2Oc3c(ccc(O)c3O)[C@@H](O)[C@H]2O)cc1 [Teracasidine] | 7.8 mmol/g | 0.05 µg/mL | – | – | –
COc1cc([C@H]2c3cc(O)c(OC)cc3C[C@@H](CO)[C@@H]2CO)ccc1O [Cyclolariciresinol] | 12 mmol/g | 0.017 µg/mL | – | – | –

From patent publication US8431170B2, “Antimicrobial composition with low cytotoxicity” (Oy Granula AB Ltd., priority 2008, dated 2013)
